# Test results published in US7179825B2, “Retinoic acid mimetic anilides” (Janssen Pharmaceutica N.V., priority 1997, dated 2007).
# Key:
# Ovariectomized rats = experiment: Vaginal keratinization test on ovariectomized rats (Example C.2); assay type: in vivo; conditions: estradiol undecylate induced keratinization, per os once daily on days 1-3, active dose = 50% of rats show complete suppression
# In short: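 Ovariectomized rats given s.c. estradiol undecylate (100 μg per 100 g body weight in sesame oil), then oral compound once daily on days 1-3 (vehicle PEG 200). Vaginas assessed histologically one day after last dose; lowest active dose (mg/kg) is the dose giving complete keratinization suppression in 50% of rats.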
# [1] = test system: metabolism of retinoic acid in human breast cancer cells; experiment: Inhibition of retinoic acid (RA) metabolism (Example C.1); assay type: cell-based; conditions: MCF-7 human breast cancer cells, 3H-RA as substrate, concentration needed to reduce the amount of metabolites to 50% of the control
# In short: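 MCF-7 cells, pre-stimulated with RA the day before, incubated with ³H-RA substrate and test compound in 1% DMSO. Polar ³H-metabolites separated from unmetabolized RA and counted by scintillation. IC50 is the concentration cutting metabolite formation to 50% of control, with blank run alongside.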
SMILES,IC50 [1] [nM],IC50 ([1]; MCF7) [nM],LAD (lowest active dose) (Ovariectomized rats) [mg/kg],"minimal effective dose (Ovariectomized rats; Rattus norvegicus, po, read-out: LAD (lowest active dose)) [mg/kg]"
C/C(=C\c1ccncc1)C(=O)Nc1ccc(C(C(C)C)n2ccnc2)cc1 (stereo not shown) [Compound 576],20.1,–,10.00,–
C/C(=C\c1ccc(C(F)(F)F)cc1)C(=O)Nc1ccc(C(C(C)C)n2ccnc2)cc1 (stereo not shown) [Compound 580],31.3,–,10.00,–
C/C(=C\C1CCCCC1)C(=O)Nc1ccc(C(C(C)C)n2ccnc2)cc1 (stereo not shown) [Compound 581],> 100,–,20.00,–
C/C(=C\C(C)C)C(=O)Nc1ccc(C(C(C)C)n2ccnc2)cc1 (stereo not shown) [Compound 588],48.8,–,10.00,–
CC(=Cc1cc2ccccc2o1)C(=O)Nc1ccc(C(C(C)C)n2ccnc2)cc1 (stereo not shown) [Compound 600],36.7,–,>10.00,–
CC(=O)Nc1ccc(/C=C(\C)C(=O)Nc2ccc(C(C(C)C)n3ccnc3)cc2)cc1 (stereo not shown) [Compound 612],16.8,–,10.00,–
CC(=O)Nc1ccc(C(c2cccc(C(F)(F)F)c2)n2cncn2)cc1 (stereo not shown) [Compound 613],1800,–,>20.00,–
CC(=O)Nc1ccc(C(c2cccc(F)c2)n2cncn2)cc1 (stereo not shown) [Compound 615],> 1000,–,>20.00,–
O=C(C=C(c1ccccc1)c1ccccc1)Nc1ccc(C(c2ccc(Cl)cc2)c2ccccn2)cc1 (stereo not shown) [Compound 680],12.1,–,>20.00,–
C/C(=C\c1ccccc1)C(=O)Nc1ccc(C(c2ccccn2)C(C)C)cc1 (stereo not shown) [Compound 682],> 100,–,>20.00,–
Cc1nccn1C(c1ccc(NC(=O)Cc2ccc(Cl)cc2)cc1)C(C)C (stereo not shown) [Compound 695],> 100,–,>10.00,–
CC(C)C(c1ccc(NC(N)=Nc2ccccc2)cc1)n1ccnc1 (stereo not shown) [Compound 743],11,–,>10.00,–
CC(C)C(c1ccc(NC(=O)Nc2cccc(F)c2)cc1)(C(C)C)n1ccnc1 [Compound 746],> 100,–,>5.00,–
CC(=Cc1ccccc1)C(=O)Nc1ccc(C(C(C)C)n2cnnc2)cc1 (stereo not shown) [Compound 749],126,–,>20.00,–
C/C(=C\c1ccccc1)C(=O)Nc1ccc(C(C(C)C)(C(C)C)n2ccnc2)cc1 [Compound 751],67,–,10.00,–
CC(=Cc1ccccc1)C(=O)Nc1ccc(C(C)(C)n2ccnc2)cc1 [Compound 753],> 100,–,>10.00,–
COc1ccc(CC(=O)Nc2ccc(C(C(C)C)(C(C)C)n3ccnc3)cc2)cc1OC [Compound 762],40.8,–,>5.00,–
"CC(C)C(c1ccc(NC(=S)Cc2ccc(Cl)cc2)cc1)n1ccnc1 (stereo not shown) [Compound 764, 4-chloro-N-[4-[1-(1H-imidazol-1-yl)-2-methylpropyl]phenyl]benzenethane-thioamide]",–,23.3,–,> 5
Cc1nccn1C(c1ccc(NC(=O)Nc2cccc(F)c2)cc1)C(C)C (stereo not shown) [Compound 773],> 100,–,>10.00,–
CCC(CC)C(c1ccc(NC(=O)c2nc3ccccc3s2)cc1)n1ccnc1.O=C(O)C(=O)O (stereo not shown) [Compound 778],75.9,–,5.00,–

# More lines, main results first:
IC50 [1] [nM],IC50 ([1]; MCF7) [nM],SMILES,LAD (lowest active dose) (Ovariectomized rats) [mg/kg],"minimal effective dose (Ovariectomized rats; Rattus norvegicus, po, read-out: LAD (lowest active dose)) [mg/kg]"
6.51,–,COc1cccc(/C=C(\C)C(=O)Nc2ccc(C(C(C)C)n3ccnc3)cc2)c1 (stereo not shown) [Compound 584],10.00,–
1.16,–,COc1ccc(CC(=O)Nc2ccc(C(n3cncn3)C(C)(C)C)cc2)cc1OC.O (stereo not shown) [Compound 642],2.50,–
4.86,–,CC(C)C(c1ccc(NC(=O)Cc2ccccc2)cc1)n1ccnc1 (stereo not shown) [Compound 650],10.00,–
10.5,–,CC(C)C(c1ccc(NC(=O)Cc2ccc(Cl)cc2)cc1)n1ccnc1 (stereo not shown) [Compound 651],5.00,–
1.47,–,CC(C)C(c1ccc(NC(=O)Cc2cccc(F)c2)cc1)n1ccnc1 (stereo not shown) [Compound 656],10.00,–
5.36,–,CC(C(=O)Nc1ccc(C(C(C)C)n2ccnc2)cc1)c1ccccc1 (stereo not shown) [Compound 657],>10.00,–
0.358,–,COc1ccc(CC(=O)Nc2ccc(C(C(C)C)n3ccnc3)cc2)cc1 (stereo not shown) [Compound 662],5.00,–
1.56,–,CC(C)C(c1ccc(NC(=O)Cc2ccccc2Cl)cc1)n1ccnc1 (stereo not shown) [Compound 664],5.00,–
3.16,–,CC(C)C(c1ccc(NC(=O)Cc2ccc(O)cc2)cc1)n1ccnc1 (stereo not shown) [Compound 668],5.00,–
8.66,–,CC(C)C(c1ccc(NC(=O)C(O)c2ccc(Cl)cc2)cc1)n1ccnc1 (stereo not shown) [Compound 669],5.00,–
3.87,–,CC(C)C(c1ccc(NC(=O)Cc2ccc(Cl)cc2)cc1)(C(C)C)n1cncn1 [Compound 745],>5.00,–
1.88,–,CCC(c1ccc(NC(=O)C(C)=Cc2ccccc2)cc1)(C(C)C)n1ccnc1 (stereo not shown) [Compound 758],>5.00,–
5.62,–,CC(C)C(c1ccc(NC(=O)Cc2ccc(Cl)cc2)cc1)(C(C)C)n1ccnc1 [Compound 763],>5.00,–
5.27,–,O=C(Cc1ccc(Cl)cc1)Nc1ccc(C2(n3ccnc3)CCC2)cc1 [Compound 774],10.00,–
4.39,–,CC(=O)Nc1ccc(C2(n3ccnc3)CCCCC2)cc1 [Compound 776],>20.00,–
